Measurements: PubChem BioAssay AID1259407 (Chemical Carcinogenesis Research Information System (CCRIS), 2018)
The source made the active and inactive calls. No rule for the calls is given here.

Test system: CCRIS mutagenicity, Ames/micronucleus/aberration tests
Assay: CCRIS mutagenicity studies
[1] = Test System: AMES SALMONELLA TYPHIMURIUM, Strain/Indicator: TA98, Metabolic Activation: NONE, Method: STANDARD PLATE
[2] = Test System: AMES SALMONELLA TYPHIMURIUM, Strain/Indicator: TA98, Metabolic Activation: RAT, LIVER, S-9, AROCLOR 1254, Method: STANDARD PLATE
[3] = Test System: AMES SALMONELLA TYPHIMURIUM, Strain/Indicator: TA100, Metabolic Activation: NONE, Method: STANDARD PLATE
[4] = Test System: AMES SALMONELLA TYPHIMURIUM, Strain/Indicator: TA100, Metabolic Activation: RAT, LIVER, S-9, AROCLOR 1254, Method: STANDARD PLATE
[5] = Test System: AMES SALMONELLA TYPHIMURIUM, Strain/Indicator: TA1535, Metabolic Activation: NONE, Method: STANDARD PLATE
[6] = Test System: AMES SALMONELLA TYPHIMURIUM, Strain/Indicator: TA1535, Metabolic Activation: RAT, LIVER, S-9, AROCLOR 1254, Method: STANDARD PLATE
[7] = Test System: AMES SALMONELLA TYPHIMURIUM, Strain/Indicator: TA1537, Metabolic Activation: NONE, Method: STANDARD PLATE
[8] = Test System: AMES SALMONELLA TYPHIMURIUM, Strain/Indicator: TA1537, Metabolic Activation: RAT, LIVER, S-9, AROCLOR 1254, Method: STANDARD PLATE

SMILES: C#C[C@]1(OC(=O)CCCCCC)CC[C@H]2[C@@H]3CCC4=CC(=O)CC[C@@H]4[C@H]3CC[C@@]21C
- mutagenic call (Test System: AMES SALMONELLA TYPHIMURIUM, Strain/Indicator: TA98, Metabolic Activation: NONE, Method: PREINCUBATION): inactive; negative
- mutagenic call [1]: inactive; negative
- mutagenic call (Test System: AMES SALMONELLA TYPHIMURIUM, Strain/Indicator: TA98, Metabolic Activation: RAT, LIVER, S-9, AROCLOR 1254, Method: PREINCUBATION): inactive; negative
- mutagenic call [2]: inactive; negative
- mutagenic call (Test System: AMES SALMONELLA TYPHIMURIUM, Strain/Indicator: TA100, Metabolic Activation: NONE, Method: PREINCUBATION): inactive; negative
- mutagenic call [3]: inactive; negative
- mutagenic call (Test System: AMES SALMONELLA TYPHIMURIUM, Strain/Indicator: TA100, Metabolic Activation: RAT, LIVER, S-9, AROCLOR 1254, Method: PREINCUBATION): inactive; negative
- mutagenic call [4]: inactive; negative
- mutagenic call (Test System: AMES SALMONELLA TYPHIMURIUM, Strain/Indicator: TA1535, Metabolic Activation: NONE, Method: PREINCUBATION): inactive; negative
- mutagenic call [5]: inactive; negative
- mutagenic call (Test System: AMES SALMONELLA TYPHIMURIUM, Strain/Indicator: TA1535, Metabolic Activation: RAT, LIVER, S-9, AROCLOR 1254, Method: PREINCUBATION): inactive; negative
- mutagenic call [6]: inactive; negative
- mutagenic call (Test System: AMES SALMONELLA TYPHIMURIUM, Strain/Indicator: TA1537, Metabolic Activation: NONE, Method: PREINCUBATION): inactive; negative
- mutagenic call [7]: inactive; negative
- mutagenic call (Test System: AMES SALMONELLA TYPHIMURIUM, Strain/Indicator: TA1537, Metabolic Activation: RAT, LIVER, S-9, AROCLOR 1254, Method: PREINCUBATION): inactive; negative
- mutagenic call [8]: inactive; negative
- mutagenic call (Test System: AMES SALMONELLA TYPHIMURIUM, Strain/Indicator: TA1538, Metabolic Activation: NONE, Method: PREINCUBATION): inactive; negative
- mutagenic call (Test System: AMES SALMONELLA TYPHIMURIUM, Strain/Indicator: TA1538, Metabolic Activation: NONE, Method: STANDARD PLATE): inactive; negative
- mutagenic call (Test System: AMES SALMONELLA TYPHIMURIUM, Strain/Indicator: TA1538, Metabolic Activation: RAT, LIVER, S-9, AROCLOR 1254, Method: PREINCUBATION): inactive; negative
- mutagenic call (Test System: AMES SALMONELLA TYPHIMURIUM, Strain/Indicator: TA1538, Metabolic Activation: RAT, LIVER, S-9, AROCLOR 1254, Method: STANDARD PLATE): inactive; negative

SMILES: CCN(CC)c1cc(NC(C)=O)c(N=Nc2ccc([N+](=O)[O-])cc2)cc1OC
- mutagenic call [1]: active; positive
- mutagenic call [2]: active; positive
- mutagenic call [3]: inactive; negative
- mutagenic call [4]: active; positive
- mutagenic call [5]: inactive; negative
- mutagenic call [6]: active; positive
- mutagenic call [7]: inactive; negative
- mutagenic call [8]: active; positive
- mutagenic call (Test System: MOUSE LYMPHOMA, Strain/Indicator: L5178Y (TK+/TK-), Metabolic Activation: NONE, Method: SUSPENSION/PLATE): inactive; negative
- mutagenic call (Test System: MOUSE LYMPHOMA, Strain/Indicator: L5178Y (TK+/TK-), Metabolic Activation: RAT, LIVER, S-9, AROCLOR 1254, Method: SUSPENSION/PLATE): inactive; negative
- mutagenic call (Test System: UDS RAT HEPATOCYTES, Strain/Indicator: THY INCORP, Metabolic Activation: NONE, Method: AUTORADIOGRAPHY): inactive; negative

SMILES: O=[O+][O-]
- mutagenic call (Test System: AMES SALMONELLA TYPHIMURIUM, Strain/Indicator: TA98, Metabolic Activation: NONE, Method: VAPOR CHAMBER): inactive; negative
- mutagenic call (Test System: AMES SALMONELLA TYPHIMURIUM, Strain/Indicator: TA98, Metabolic Activation: RAT, LIVER, S-9, AROCLOR 1254, Method: VAPOR CHAMBER): inactive; negative
- mutagenic call (Test System: AMES SALMONELLA TYPHIMURIUM, Strain/Indicator: TA100, Metabolic Activation: NONE, Method: VAPOR CHAMBER): inactive; negative
- mutagenic call (Test System: AMES SALMONELLA TYPHIMURIUM, Strain/Indicator: TA100, Metabolic Activation: RAT, LIVER, S-9, AROCLOR 1254, Method: VAPOR CHAMBER): inactive; negative
- mutagenic call (Test System: AMES SALMONELLA TYPHIMURIUM, Strain/Indicator: TA102, Metabolic Activation: NONE): active; positive
- mutagenic call (Test System: AMES SALMONELLA TYPHIMURIUM, Strain/Indicator: TA102, Metabolic Activation: NONE, Method: VAPOR CHAMBER): active; positive
- mutagenic call (Test System: AMES SALMONELLA TYPHIMURIUM, Strain/Indicator: TA102, Metabolic Activation: RAT, LIVER, S-9, AROCLOR 1254 (10%)): active; positive
- mutagenic call (Test System: AMES SALMONELLA TYPHIMURIUM, Strain/Indicator: TA102, Metabolic Activation: RAT, LIVER, S-9, AROCLOR 1254, Method: VAPOR CHAMBER): active; positive
- mutagenic call (Test System: AMES SALMONELLA TYPHIMURIUM, Strain/Indicator: TA104, Metabolic Activation: NONE, Method: VAPOR CHAMBER): inactive; negative
- mutagenic call (Test System: AMES SALMONELLA TYPHIMURIUM, Strain/Indicator: TA104, Metabolic Activation: RAT, LIVER, S-9, AROCLOR 1254, Method: VAPOR CHAMBER): inactive; negative
- mutagenic call (Test System: AMES SALMONELLA TYPHIMURIUM, Strain/Indicator: TA1535, Metabolic Activation: NONE, Method: VAPOR CHAMBER): inactive; negative
- mutagenic call (Test System: AMES SALMONELLA TYPHIMURIUM, Strain/Indicator: TA1535, Metabolic Activation: RAT, LIVER, S-9, AROCLOR 1254, Method: VAPOR CHAMBER): inactive; negative

SMILES: COc1cc(-c2ccc(N/N=C3\C(=O)c4ccc(N)cc4C=C3S(=O)(=O)O)c(OC)c2)ccc1N/N=C1/C=C(S(=O)(=O)O)c2ccccc2C1=O
- mutagenic call (Test System: AMES SALMONELLA TYPHIMURIUM, Strain/Indicator: TA98, Metabolic Activation: HAMSTER, LIVER, S-9, Method: PREINCUBATION (PRIVAL METHOD)): active; positive

SMILES: Clc1cnc2ccccc2c1
- mutagenic call (Test System: AMES SALMONELLA TYPHIMURIUM, Strain/Indicator: TA100, Metabolic Activation: RAT, LIVER, S-9, PHENOBARBITAL AND 5,6-BENZOFLAVONE, Method: PREINCUBATION): inactive; negative
